Measurements reported in PMC11050443, “Discovery of Strong 3-Nitro-2-Phenyl-2H-Chromene Analogues as Antitrypanosomal Agents and Inhibitors of Trypanosoma cruzi Glucokinase” (International Journal of Molecular Sciences, 2024).

These compounds were tested against T1, TcGlcK (Trypanosoma cruzi glucokinase) (Trypanosoma cruzi, UniProt Q4E4E1) (assay: TcGlcK primary screening assay (LmG6PDH-coupled, Dixon plots)). Details: Dixon plots; 0.4, 0.6, 0.8 mM D-glucose; N = 1 unless marked, N = 3 for compounds 1, 4, 9, 11.
T1 construct: made in house; host or cells: Escherichia coli BL21(DE3)
T1 sequence (Q4E4E1 1-376): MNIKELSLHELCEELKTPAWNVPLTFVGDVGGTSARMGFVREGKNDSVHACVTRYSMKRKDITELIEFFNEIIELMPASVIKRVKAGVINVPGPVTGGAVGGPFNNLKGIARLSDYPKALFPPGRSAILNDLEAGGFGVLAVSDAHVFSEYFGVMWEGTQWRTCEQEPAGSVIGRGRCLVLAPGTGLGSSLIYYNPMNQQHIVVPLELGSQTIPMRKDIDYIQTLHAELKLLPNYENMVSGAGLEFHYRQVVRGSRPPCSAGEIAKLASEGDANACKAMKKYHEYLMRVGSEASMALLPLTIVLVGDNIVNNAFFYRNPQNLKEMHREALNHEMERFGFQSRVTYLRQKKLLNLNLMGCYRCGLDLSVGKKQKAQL
Assay type: biochemical
Method: A primary screening assay was carried out for TcGlcK with the 3-nitro-2-phenyl-2H-chromene analogues. The data was subsequently processed for respective Ki values in order to assess enzyme inhibition. […] The primary screening assay was performed with the substrate D-glucose in various concentrations of 0.4 mM, 0.6 mM, and 0.8 mM to produce Dixon plots with different slopes. Each of the 3-nitro-2-phenyl-2H-chromene analogues were originally prepared at a working concentration of 1.0 mM and were dissolved in 100% DMSO. The final assay concentrations of the analogue compounds (inhibitors) ranged from 0.0–10.0 μM. The analogue compounds were pre-incubated with the enzyme system a minimum of 10 min prior to the initiation of the assay. The enzymatic reaction was carried out at room temperature (22 °C; temperature optimum) using ATP to initiate the reaction, and termination was performed after 120 s (time optimum) by stopping the reaction with the addition of an EDTA (pH 8.0) solution, to a final concentration of 100 mM. TcGlcK enzyme activity was analyzed for the production of NADPH. Each completed reaction mixture was added into a black, round-bottom microplate and scanned by a VANTAstar-F multi-mode microplate reader (BMG LABTECH, Inc.; Cary, NC, USA). The instrument was set to fluorescence mode and the wavelengths (λex = 340 nm; λem = 485 nm) were set to observe the relative fluorescence units of NADPH [40]. The enzyme-inhibition kinetics Ki value determination and the mode of inhibition was determined using the Cornish–Bowden Dixon Plot analysis method.
`COc1ccc(C2Oc3c(Br)cc(Br)cc3C=C2[N+](=O)[O-])cc1OC` (stereo not shown) [Compound 5, 6,8-Dibromo-2-(3,4-dimethoxyphenyl)-3-nitro-2H -chromene] gave a Ki of 35 µM.
`CCOc1ccc(C2Oc3c(Br)cc(Br)cc3C=C2[N+](=O)[O-])cc1OC` (stereo not shown) [Compound 6, 6,8-Dibromo-2-(4-ethoxy-3-methoxyphenyl)-3-nitro-2H -chromene] was tested, and the Ki was 6.1 µM.
Work on `O=[N+]([O-])C1=Cc2cc(Br)cc(Br)c2OC1c1c(Cl)cccc1Cl` (stereo not shown) [Compound 7, 2-(2,6-Dichlorophenyl)-6,8-dibromo-3-nitro-2H -chromene] yielded a Ki of 50 µM.
`CCOc1ccc(C2Oc3c(cc(Br)cc3OC)C=C2[N+](=O)[O-])cc1OC` (stereo not shown) [Compound 8, 6-Bromo-2-(4-ethoxy-3-methoxyphenyl)-8-methoxy-3-nitro-2H -chromene] gave a Ki of 30 µM.
`CCOc1ccc(C2Oc3ccccc3C=C2[N+](=O)[O-])cc1OCC` (stereo not shown) [Compound 10, 2-(3,4-Diethoxyphenyl)-3-nitro-2H -chromene] was tested, and the Ki was 23 µM.
In the case of `O=[N+]([O-])C1=Cc2ccccc2OC1c1c(Cl)cccc1Cl` (stereo not shown) [Compound 13, 2-(2,6-Dichlorophenyl)-3-nitro-2H -chromene], the Ki is reported as 25 µM.

The compounds below were run against T2, LmG6PDH (Leuconostoc mesenteroides glucose-6-phosphate dehydrogenase) (Leuconostoc mesenteroides, UniProt P11411) (assay: Confirmatory assay on the LmG6PDH enzyme-coupled system). Details: 20 µM compound; N = 4.
T2 construct: purchased Worthington Biochemical Corporation
T2 sequence (P11411 whole entry): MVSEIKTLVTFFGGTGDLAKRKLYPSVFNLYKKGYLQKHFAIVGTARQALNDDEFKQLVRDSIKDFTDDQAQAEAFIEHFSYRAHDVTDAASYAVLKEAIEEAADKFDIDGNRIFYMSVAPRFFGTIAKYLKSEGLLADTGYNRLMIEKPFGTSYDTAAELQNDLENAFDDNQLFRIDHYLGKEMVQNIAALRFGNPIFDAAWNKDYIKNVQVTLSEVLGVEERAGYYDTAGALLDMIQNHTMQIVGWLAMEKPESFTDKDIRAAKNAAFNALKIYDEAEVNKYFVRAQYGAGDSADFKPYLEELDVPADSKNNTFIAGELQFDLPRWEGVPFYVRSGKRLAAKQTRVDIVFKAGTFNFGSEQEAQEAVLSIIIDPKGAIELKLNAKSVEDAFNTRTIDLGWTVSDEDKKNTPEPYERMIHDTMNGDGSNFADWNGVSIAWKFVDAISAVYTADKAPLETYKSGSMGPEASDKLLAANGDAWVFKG
Assay type: biochemical
Method: Two criteria were examined in order to certify on-target confirmed hits: (a) the assessment of potential inhibition to the LmG6PDH enzyme-coupled system, and (b) the precision of the assay (per inhibitor), performed in quadruplicate (N = 4). Compounds were tested in quadruplicate in a black, round-bottom 96-well microplate in which wells were filled with a buffered solution (50 mM triethanolamine, 150 mM NaCl) amounting to a total volume of 206.5 μL that contained the following reagents at final assay concentrations: LmG6PDH (6.1 μg/mL), NADP^+ (0.54 mM), ATP (0.54 mM), MgCl2 (6.9 mM), DMSO (1.0% by vol.), D-glucose-6-phosphate (0.80 mM), and a 3-nitro-2-phenyl-2H-chromene analogue (20.0 μM). The analogue compounds were pre-incubated with the enzyme system a minimum of 10 min prior to the initiation of the assay. The enzymatic reactions were initiated and terminated similarly as described in the TcGlcK primary screen (vide supra). The production of NADPH was monitored using the VANTAstar-F multi-mode microplate reader set to fluorescent mode, λex = 340 nm and λem = 485 nm, over a 120-s timeframe.
In the case of `CCOc1ccc(C2Oc3c(Br)cc(Br)cc3C=C2[N+](=O)[O-])cc1OC` (stereo not shown) [Compound 6, 6,8-Dibromo-2-(4-ethoxy-3-methoxyphenyl)-3-nitro-2H -chromene], the “LmG6PDH inhibitory effect (in words)” value is reported as “did not observe any significant LmG6PDH inhibitory effects”.

Same assay, conditions: percentage of inhibition at 20 µM compound in comparison to controls; N = 4; read-out: LmG6PDH Inh20
Work on `COc1ccc(C2Oc3c(Br)cc(Br)cc3C=C2[N+](=O)[O-])cc1OC` (stereo not shown) [Compound 5, 6,8-Dibromo-2-(3,4-dimethoxyphenyl)-3-nitro-2H -chromene] yielded an inhibition at 20 µM of 0%.
`CCOc1ccc(C2Oc3c(Br)cc(Br)cc3C=C2[N+](=O)[O-])cc1OC` (stereo not shown) [Compound 6, 6,8-Dibromo-2-(4-ethoxy-3-methoxyphenyl)-3-nitro-2H -chromene] gave an inhibition at 20 µM of 16.1%.
With `O=[N+]([O-])C1=Cc2cc(Br)cc(Br)c2OC1c1c(Cl)cccc1Cl` (stereo not shown) [Compound 7, 2-(2,6-Dichlorophenyl)-6,8-dibromo-3-nitro-2H -chromene] the inhibition at 20 µM was 0%.
With `CCOc1ccc(C2Oc3c(cc(Br)cc3OC)C=C2[N+](=O)[O-])cc1OC` (stereo not shown) [Compound 8, 6-Bromo-2-(4-ethoxy-3-methoxyphenyl)-8-methoxy-3-nitro-2H -chromene] the inhibition at 20 µM was 0%.
For `O=[N+]([O-])C1=Cc2ccccc2OC1c1c(Cl)cccc1Cl` (stereo not shown) [Compound 13, 2-(2,6-Dichlorophenyl)-3-nitro-2H -chromene], the inhibition at 20 µM was 0%.

Same assay, conditions: read-out: LmG6PDH Inh20
`CCOc1ccc(C2Oc3ccccc3C=C2[N+](=O)[O-])cc1OCC` (stereo not shown) [Compound 10, 2-(3,4-Diethoxyphenyl)-3-nitro-2H -chromene] showed an inhibition at 20 µM of 0%.

What follows are compounds tested on T. brucei brucei (427 strain) bloodstream form (assay: In vitro T. brucei biological assay (Alamar blue)). Details: T. brucei brucei 427 strain bloodstream form.
Assay type: cell-based, Trypanosoma brucei brucei
Method: The in vitro cell culture preparation of T. brucei brucei (427 strain) trypomastigote bloodstream form followed by treatment with inhibitors has recently been described by Ajayi and colleagues. The 3-nitro-2-phenyl-2H-chromene compounds (inhibitors) that were prepared as 10.0 mM stock solutions in 100% DMSO were thawed from −80 °C to room temperature. HMI-9 medium [Iscove’s modification of DMEM supplemented with 10% FBS, 10% serum plus (SAFC), 0.05 mM bathocuproinesulfonate, 1.5 mM L-cysteine, 1.0 mM hypoxanthine, 0.2 mM β-mercaptoethanol, 0.16 mM thymidine, and 1.0 mM pyruvate] was prepared. In a sterile, round-bottom, 96-well microplate, 100 μL of HMI-9 medium was added to each well. A volume of 2.0 μL of a given compound plus a volume of 98.0 μL of fresh media were both added to a well in the first row of the 96-well microplate; this was performed for each compound to be tested. Solutions were mixed with a micropipette followed by transfer of 100 μL to the next row and repeated. The compound solutions ranged from 0.0781–10.0 μM and this was accomplished by serial dilution using a 2-fold dilution. T. brucei parasites were centrifuged for 10 min at 900× g (without centrifuge breaks). The media was carefully discarded by aspiration and the parasites were resuspended in warm media. Parasites were counted in a Newbauer chamber. Afterwards, the parasites were diluted to 50,000 cells/mL (5000 cells/well) and 100 μL was added to each well of the 96-well microplate using a multichannel pipette. After 48 h, 20.0 μL of Alamar blue was added to each well and the plate was placed into an incubator for 4 h at 37 °C. Fluorescence readings were measured using a Victor Nivo multimode microplate reader (PerkinElmer, Inc.; Shelton, CT, USA) at λex = 530 nm and λem = 590 nm. All measurements were performed in triplicate and IC50 determinations for percent growth inhibition were carried out using GraphPad Prism 10.0. The detergent SDS was used as a positive control and its final solution concentration was 0.5%. Three control experiments were performed, as follows: (a) parasites alone, (b) parasites and 0.5% SDS, and (c) the medium alone.
For `COc1ccc(C2Oc3c(Br)cc(Br)cc3C=C2[N+](=O)[O-])cc1OC` (stereo not shown) [Compound 5, 6,8-Dibromo-2-(3,4-dimethoxyphenyl)-3-nitro-2H -chromene], the “anti-T. brucei activity (in words)” value was “nanomolar potency”.
With `CCOc1ccc(C2Oc3c(Br)cc(Br)cc3C=C2[N+](=O)[O-])cc1OC` (stereo not shown) [Compound 6, 6,8-Dibromo-2-(4-ethoxy-3-methoxyphenyl)-3-nitro-2H -chromene] the “anti-T. brucei activity (in words)” value was “nanomolar potency”.
`O=[N+]([O-])C1=Cc2cc(Br)cc(Br)c2OC1c1c(Cl)cccc1Cl` (stereo not shown) [Compound 7, 2-(2,6-Dichlorophenyl)-6,8-dibromo-3-nitro-2H -chromene] was tested, and the “anti-T. brucei activity (in words)” value was “nanomolar potency”.
`CCOc1ccc(C2Oc3c(cc(Br)cc3OC)C=C2[N+](=O)[O-])cc1OC` (stereo not shown) [Compound 8, 6-Bromo-2-(4-ethoxy-3-methoxyphenyl)-8-methoxy-3-nitro-2H -chromene] was tested, and the “anti-T. brucei activity (in words)” value was “nanomolar potency”.

Same assay, conditions: T. brucei brucei 427 strain bloodstream form growth inhibition; 48 h; N = 3
`COc1ccc(C2Oc3c(Br)cc(Br)cc3C=C2[N+](=O)[O-])cc1OC` (stereo not shown) [Compound 5, 6,8-Dibromo-2-(3,4-dimethoxyphenyl)-3-nitro-2H -chromene] showed an IC50 of 0.42 ± 0.04 µM.
In the case of `CCOc1ccc(C2Oc3c(Br)cc(Br)cc3C=C2[N+](=O)[O-])cc1OC` (stereo not shown) [Compound 6, 6,8-Dibromo-2-(4-ethoxy-3-methoxyphenyl)-3-nitro-2H -chromene], the IC50 is reported as 0.36 ± 0.06 µM.

Same assay, conditions: Trypanosoma brucei, 48 h, T. brucei brucei 427 strain bloodstream form growth inhibition; N = 3
With `COc1ccc(C2Oc3c(Br)cc(Br)cc3C=C2[N+](=O)[O-])cc1OC` (stereo not shown) [Compound 5, 6,8-Dibromo-2-(3,4-dimethoxyphenyl)-3-nitro-2H -chromene] the IC50 was less than 0.55 µM.
`CCOc1ccc(C2Oc3c(Br)cc(Br)cc3C=C2[N+](=O)[O-])cc1OC` (stereo not shown) [Compound 6, 6,8-Dibromo-2-(4-ethoxy-3-methoxyphenyl)-3-nitro-2H -chromene] showed an IC50 of less than 0.55 µM.
With `O=[N+]([O-])C1=Cc2cc(Br)cc(Br)c2OC1c1c(Cl)cccc1Cl` (stereo not shown) [Compound 7, 2-(2,6-Dichlorophenyl)-6,8-dibromo-3-nitro-2H -chromene] the IC50 was 0.9 ± 0.33 µM.
In the case of `CCOc1ccc(C2Oc3c(cc(Br)cc3OC)C=C2[N+](=O)[O-])cc1OC` (stereo not shown) [Compound 8, 6-Bromo-2-(4-ethoxy-3-methoxyphenyl)-8-methoxy-3-nitro-2H -chromene], the IC50 is reported as 0.74 ± 0.14 µM.
`CCOc1ccc(C2Oc3ccccc3C=C2[N+](=O)[O-])cc1OCC` (stereo not shown) [Compound 10, 2-(3,4-Diethoxyphenyl)-3-nitro-2H -chromene] gave an IC50 of 1.12 ± 0.3 µM.
Work on `O=[N+]([O-])C1=Cc2ccccc2OC1c1c(Cl)cccc1Cl` (stereo not shown) [Compound 13, 2-(2,6-Dichlorophenyl)-3-nitro-2H -chromene] yielded an IC50 of 1.28 ± 0.1 µM.

Same assay, conditions: Trypanosoma brucei, bound stated in the text for the top seven anti-T. brucei compounds
For `COc1ccc(C2Oc3c(Br)cc(Br)cc3C=C2[N+](=O)[O-])cc1OC` (stereo not shown) [Compound 5, 6,8-Dibromo-2-(3,4-dimethoxyphenyl)-3-nitro-2H -chromene], the IC50 was less than 0.75 µM.
With `CCOc1ccc(C2Oc3c(Br)cc(Br)cc3C=C2[N+](=O)[O-])cc1OC` (stereo not shown) [Compound 6, 6,8-Dibromo-2-(4-ethoxy-3-methoxyphenyl)-3-nitro-2H -chromene] the IC50 was less than 0.75 µM.
For `CCOc1ccc(C2Oc3c(cc(Br)cc3OC)C=C2[N+](=O)[O-])cc1OC` (stereo not shown) [Compound 8, 6-Bromo-2-(4-ethoxy-3-methoxyphenyl)-8-methoxy-3-nitro-2H -chromene], the IC50 was less than 0.75 µM.
